# In patent publication US20250019644A1, “Quantitatively Mapping Amino Acid Properties (QMAP) Cell Culture Media” (UNIVERSITY OF IOWA RESEARCH FOUNDATION, priority 2023, published 2025):
# Legend:
# HCT116 cells = experiment: Screen 2: metabolic profiling with unlabeled amino acids (LC-MS); type: cell-based, human; settings: 0.5, 1, 2 mM, dose-dependent, 6 hours
# Protocol: Media was changed to QMAP plus individual amino acid treatments at the start of the experiment. 200 mM amino acid stocks were used to make the QMAP+individual amino acid treatment medias that were placed in the tissue culture incubator for 30-45 minutes prior to the start of the dosing for equilibration of media bicarbonate with incubator CO2. For metabolomic profiling experiments, cells were treated with additional amino acid doses of 0.5, 1 and 2 mM, and 1 mM was used for stable isotope tracing experiments. To minimize systematic error, each amino acid dose was added as a batch (20 amino acids+vehicle control) such that each well of each plate contained a different amino acid. The process was repeated for the other two concentrations of amino acids on the next plates to make set. This was repeated four more times to achieve the sample size of 5 replicates for each of the 3 doses of amino acids. Each plate was then incubated for 6 hours in the tissue culture incubator before being rapidly washed twice with sterile water and snap frozen on liquid nitrogen before being stored at −80° C. The next day, the plates were lyophilized for 90 minutes and then stored at −80° C.
# Extraction buffer was prepared by adding 2:2:1 methanol: acetonitrile: water. For profiling, the following internal standards (Cambridge Isotope Laboratories) were added at 1 μg/mL each: L-Valine-D8, L-Aspartate (^13C4, D3, ^15N) and Succinate (13C4D4). 6-well plates were removed from storage at −80° C. and 1 ml of ice-cold extraction buffer was added. Plates were incubated at −20° C. for 5 minutes, scraped, transferred to microcentrifuge tubes and frozen in liquid nitrogen. Tubes were then placed into a sonicating water bath for 10 minutes and rotated at −20° C. for 1 hour before being centrifuged at 4° C. for 10 minutes at 21,000×g. […] of extract was dried down completely using a speed-vacuum (˜90 min), dissolved in […] of acetonitrile: water (1:1), vortexed for 10 min, and stored overnight at −20° C. to allow protein precipitation. Samples were then centrifuged at 4° C. for 10 minutes at 21,000×g and the supernatants were transferred into autosampler vials for analysis. For the QCs, […] of each extract was pooled, at the step prior to drying down, mixed and dried in […] amounts alongside the samples. Once dried, QCs were processed with the samples but recombined prior to being aliquoted into autosampler vials. All samples were then frozen at −80° C., and only one set of samples, which included a QC aliquot, was thawed, vortexed and placed into the instrument.
# The sheath gas flow was set to 40 units, the auxiliary gas flow was set to 15 units and the sweep gas flow was set to 1 unit. […] For tracing, […] of sample was injected twice in either positive or negative mode to maximize detection efficiency and minimize metabolite crowding using the Sim-mode.
# LC-MS data was processed using the Thermo Scientific TraceFinder 5.1 software.
# The three cell lines were then treated with 0.5, 1, and 2 mM of individual, unlabeled amino acids, and metabolic profiling was performed to determine how individual amino acids quantitatively altered metabolite abundance (Screen 2).
# U2OS = experiment: CellTiter-Glo Luminescent Cell Viability Assay; type: cell-based, human; settings: 2 mM, 24 hours, DMEM
# Protocol: HT29, 293T, U2OS, and 3T3-LI cells were plated on an opaque 96-well plate in 1:1 DMEM. […] At the appropriate time point, 100 μl of CellTiter-Glo reagent (Promega #G7570) was added to each well. The plate was gently mixed for 2 minutes to induce lysis, incubated at room-temperature for 10 minutes, and then luminescence was measured.
# To test whether tryptophan inhibition of growth applied to other cell lines and persisted in conventional cell culture media, two human cancer cell lines (HT29, U2OS), a transformed human embryonic kidney cell line (293T), and a mouse, fibroblast-like cell line (3T3-L1) were grown in DMEM for 24 hours and then treated with 2 mM tryptophan or vehicle. […]
# HCT15 cells = experiment: Crystal Violet Cell Cytotoxicity Assay; type: cell-based; settings: Homo sapiens, HCT-15; 2 mM, 48 hours, QMAP, compared to QMAP only; read-out: decrease in cell viability
# Protocol: HCT15 cells were plated in 1:1 DMEM: QMAP media on a clear 96-well plate. After 18 hours, cells were treated with 200 μl of QMAP (CTRL) or QMAP plus an amino acid (2 mM). Cells were then grown for 48 hours, followed by a live/dead assay using the Crystal Violet Cell Cytotoxicity Assay Kit (BioVision, #K329) according to the manufacturer's directions. Briefly, cells were washed with 200 μl of 1× washing solution and incubated in 50 μl of crystal violet staining solution for 20 minutes. Cells were washed four times with 200 μl of 1× washing solution to remove dead cells. Cells were then incubated in 100 μl of solubilization solution for 20 minutes, and absorbance was measured at 595 nm.
# An amino acid screen of all 20 essential and non-essential amino acids was performed to assess the differential effects of amino acids on cancer cell proliferation. Because commercially available cell culture media such as DMEM or RPMI contain variable concentrations of amino acids, a chemically defined, custom minimal media was designed containing all amino acids present at 0.3 mM, referred to as QMAP. HCT15 cells, a colon cancer cell line, were plated in 50:50 DMEM: QMAP and left to attach overnight. […] After 48 hours, cell proliferation was measured by crystal violet dye, which binds to ribose-like molecules such as DNA and assumes dead cells become unattached and are washed away.
compound,measurement,setting,value
"N[C@@H](Cc1c[nH]c2ccccc12)C(=O)O [tryptophan, L-tryptophan]",distal TCA cycle metabolite levels (alpha-ketoglutarate to malate),HCT116 cells,decreased
same,glutamine levels,HCT116 cells,increased
same,cell viability compared to vehicle,U2OS,significant decreases
same,cytotoxicity at 2000 µM,HCT15 cells,~50%
